Literature values, collected in US9402854B2, “Pharmaceutical composition” (Cipla Limited, priority 2012, dated 2016).

Settings: versus racemic formoterol (contains both (S,S) and (R,R) enantiomers)

## COc1ccc(C[C@@H](C)NC[C@H](O)c2ccc(O)c(NC=O)c2)cc1 [Arformoterol]
  potency relative to racemic formoterol: two-fold greater potency
